According to patent publication US10253081B2, “Glucagon analogues” (Zealand Pharma A/S, priority 2012, dated 2019):
Read-outs that look alike come from different tables or passages of the source. *1 amine or outer side, *2 acyl side, *3 side chain or, on linkers, in order; H or OH if unused. Where a SMILES comes first, the peptide text is derived from it. Side-chain parts run from the residue outwards. [ ]: non-standard residue; d: D form. The star is where a group is joined. γGlu = O=C(O)[C@H](CCC(=O)[*:2])N[*:1]; Palmitoyl = CCCCCCCCCCCCCCCC(=O)*; Aib = CC(C)(N)C(=O)O

Assays:
[1] = Pharmacokinetic parameters after subcutaneous and intravenous administration to mice; type: in vivo; conditions: male, mouse, plasma, 20 nmol/kg, C57Bl/6J mice; for half-life: read-out: Terminal half life (converted)
Experimental: Pharmacokinetic parameters of the test compounds were determined after subcutaneous and intravenous administration to C57Bl/6J mice.
8 week old male C57Bl/6J mice were obtained from Taconic (Denmark) weighing approximately 20-25 g at time of arrival at the test facility. The mice were caged in European standard cages type III with light cycle of 12-hour dark and 12-hour light (lights on 06.00). Both diet, Altromin 1324 (Altromin, Germany), and water was administered ad libitum during the whole experimental period. The 8-11 week animals were imported to the laboratory at least 7 days before the start up of the experimental procedure in order to assure proper acclimatization. After sampling the mice were euthanized by cervical dislocation.
The compounds were first dissolved in 0.096% aqueous ammonia to a nominal concentration of 2 mg/ml, and then diluted to the desired dosing strength (4 μM) in sterile PBS containing 25 mM phosphate buffer, pH 7.4. Subcutaneous and intravenous injections corresponding to 20 nmol/kg were given. The GLP-1-glucagon dual agonists were administered for subcutaneous dosing in the neck region and via a lateral tail vein for intravenous dosing.
Blood samples (250 μl) were collected from the periorbital plexus at time points 0.5, 2, 4, 6, 12, 16, 20, 24 h for subcutaneous and 10, 30 min, 3, 6, 12, 18, 24 h for intravenous administration into ice-chilled K3EDTA tubes and centrifuged for 5 minutes at 4° C. within 20 minutes of sampling. Plasma (>100 μl) was separated to ice-chilled Micronic tubes, immediately frozen, and kept at −70° C. until analysed for plasma concentration for the respective GLP-1-glucagon compound using LC-MS/MS. Individual plasma concentration-time profiles were analysed by a non-compartmental approach in WinNonLin v6.3 (Pharsight inc, Mountain View, Calif., USA), and the resulting pharmacokinetic parameters determined.

[2] = Oral glucose tolerance test (OGTT); type: in vivo, C57BL/6J mice; conditions: blood glucose AUC 0-120 min, 10 nmol/kg s.c. 4 h before oral glucose 2 g/kg
Experimental: Male C57BL/6J mice were fasted for 10 h before they received an oral glucose bolus of 2 g/kg body weight. Peptides were dissolved in saline buffered with 25 mM phosphate and administered at a dose of 10 nmol/kg body weight by subcutaneous injection 4 h before the glucose bolus. Control animals received a vehicle injection only. Group size was 7 animals per group. A pre-dose and a pre-glucose (0 min) blood sample were obtained by tail bleeding and blood glucose was measured with a glucometer. Additional samples of tail blood for measuring blood glucose were obtained 15 min, 30 min, 60 min, 90 min and 120 min after the glucose challenge. […] Calculation of AUC was done by the trapezoidal rule without baseline correction. The data are presented as mean±S.E.M. Statistical comparisons were conducted by one-way ANOVA followed by Tukey's post test. Vehicle alone was used as a control.

[3] = molecular target: T1, endogenous GLP-1 receptors (Mus musculus, UniProt O35659); assay: Agonistic activity on endogenous GLP-1 receptor (cAMP, murine insulinoma cell line); type: cell-based; conditions: intracellular cAMP, 15 minutes at 26° C.; read-out: EC50 GLP-1R (murine insulinoma cells)
T1 construct: Agonistic activity of the test compounds on endogenous GLP-1 receptors; endogenous in cells
T1 sequence (O35659 22-463): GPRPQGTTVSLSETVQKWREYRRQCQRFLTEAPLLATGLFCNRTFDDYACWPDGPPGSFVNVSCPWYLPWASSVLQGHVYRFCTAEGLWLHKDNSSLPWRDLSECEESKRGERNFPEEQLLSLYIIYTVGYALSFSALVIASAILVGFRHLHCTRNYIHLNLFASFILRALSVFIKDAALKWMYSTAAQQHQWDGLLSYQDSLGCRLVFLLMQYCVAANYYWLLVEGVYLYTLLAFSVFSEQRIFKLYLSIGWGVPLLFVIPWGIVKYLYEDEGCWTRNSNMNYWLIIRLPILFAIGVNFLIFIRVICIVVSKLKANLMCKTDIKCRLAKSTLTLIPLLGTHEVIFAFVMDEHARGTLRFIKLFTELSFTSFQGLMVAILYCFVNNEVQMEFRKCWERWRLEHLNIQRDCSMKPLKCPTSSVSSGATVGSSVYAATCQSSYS
Summary of the method: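 Murine insulinoma cells were exposed 15 min at 26° C in KRBH with 0.1% DMSO to compound or GLP-1 ([…]), then cAMP was measured by AlphaScreen against a standard curve, in quadruplicate. pEC50 came from curve fits; % CTL was normalised to the maximal GLP-1 cAMP response.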

[4] = molecular target: T2, human glucagon-like peptide 1 receptor (GLP-1R) (Homo sapiens, UniProt P43220); assay: GLP-1 receptor efficacy assay (cAMP AlphaScreen, CHO cells); type: cell-based; conditions: Table 1A
T2 construct: expressed in transfected cells
Summary of the method: (§1)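 Stably transfected CHO clones expressing human GLP-1R or glucagon receptor were treated with increasing peptide concentrations for 15 min at room temperature in KRBH containing 0.1 mM IBMX. After lysis, cAMP was quantified by AlphaScreen; EC50 and efficacy relative to GLP-1 or glucagon reference came from curve fitting.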

[5] = molecular target: T3, human glucagon receptor (Glucagon-R) (Homo sapiens, UniProt P47871); assay: Glucagon receptor efficacy assay (cAMP AlphaScreen, CHO cells); type: cell-based; conditions: Table 1A; CHO cells expressing human Glucagon-R, cAMP; read-out: EC50 hGCGR CHO-K1
T3 construct: expressed in transfected cells
Summary of the method: as §1

T2 sequence (P43220 24-463): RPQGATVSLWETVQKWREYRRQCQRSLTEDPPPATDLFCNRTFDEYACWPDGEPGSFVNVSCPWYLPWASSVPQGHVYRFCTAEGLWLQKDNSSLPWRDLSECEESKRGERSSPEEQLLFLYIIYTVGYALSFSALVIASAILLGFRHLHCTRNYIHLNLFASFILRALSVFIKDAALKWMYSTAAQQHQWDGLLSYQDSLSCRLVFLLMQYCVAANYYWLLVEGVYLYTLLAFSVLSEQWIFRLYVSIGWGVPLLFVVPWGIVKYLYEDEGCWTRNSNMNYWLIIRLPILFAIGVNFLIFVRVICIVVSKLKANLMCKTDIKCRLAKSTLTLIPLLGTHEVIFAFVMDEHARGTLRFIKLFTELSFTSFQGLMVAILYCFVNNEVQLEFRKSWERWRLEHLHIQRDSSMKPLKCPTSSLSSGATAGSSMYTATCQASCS
T3 sequence (P47871 26-477): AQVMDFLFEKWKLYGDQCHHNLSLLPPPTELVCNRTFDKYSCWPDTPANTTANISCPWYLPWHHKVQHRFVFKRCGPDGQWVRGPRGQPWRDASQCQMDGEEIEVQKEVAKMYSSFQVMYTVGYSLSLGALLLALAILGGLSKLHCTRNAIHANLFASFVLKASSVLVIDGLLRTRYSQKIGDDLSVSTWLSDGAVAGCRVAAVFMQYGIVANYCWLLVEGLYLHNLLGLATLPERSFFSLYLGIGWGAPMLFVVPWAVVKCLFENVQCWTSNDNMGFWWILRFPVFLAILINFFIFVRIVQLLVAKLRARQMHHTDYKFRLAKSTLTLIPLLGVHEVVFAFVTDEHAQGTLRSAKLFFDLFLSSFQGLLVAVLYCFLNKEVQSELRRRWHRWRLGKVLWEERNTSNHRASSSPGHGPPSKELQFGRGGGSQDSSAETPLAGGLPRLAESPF

clearance ([1]; IV): 0.157 mL/min/kg
half-life ([1]; IV): 3.9 h
Tmax ([1]; SC): 4 h
bioavailability ([1]; SC): 64%
MRT ([1]; SC, read-out: Mean Residence Time): 12.5 h
half-life ([1]; SC): 5 h
EC50 [3]: 1.01 nM
EC50 ([4]; CHO cells expressing human GLP-1-R, cAMP, read-out: EC50 hGLP-1R CHO-K1): 0.64 nM
Ratio GLP-1/Glucagon ([4]; EC50 [GLP-1R]/EC50 [Glucagon-R]): 1.05
EC50 [5]: 0.61 nM
Structure (SMILES): CCCCCCCCCCCCCCCC(=O)N[C@@H](CCC(=O)NCCCC[C@H](NC(=O)[C@H](CCC(=O)O)NC(=O)[C@H](CC(=O)O)NC(=O)[C@H](CC(C)C)NC(=O)[C@H](Cc1ccc(O)cc1)NC(=O)[C@H](CCCCN)NC(=O)[C@H](CO)NC(=O)[C@H](Cc1ccc(O)cc1)NC(=O)[C@H](CC(=O)O)NC(=O)[C@H](CO)NC(=O)[C@@H](NC(=O)[C@H](Cc1ccccc1)NC(=O)[C@@H](NC(=O)CNC(=O)[C@H](CCC(N)=O)NC(=O)C(C)(C)NC(=O)[C@@H](N)Cc1c[nH]cn1)[C@@H](C)O)[C@@H](C)O)C(=O)N[C@@H](CCCNC(=N)N)C(=O)N[C@@H](C)C(=O)N[C@@H](CCCCN)C(=O)N[C@@H](CC(=O)O)C(=O)N[C@@H](Cc1ccccc1)C(=O)N[C@H](C(=O)N[C@@H](CCC(=O)O)C(=O)N[C@@H](Cc1c[nH]c2ccccc12)C(=O)N[C@@H](CC(C)C)C(=O)N[C@@H](CC(C)C)C(=O)N[C@@H](CO)C(=O)O)[C@@H](C)CC)C(=O)O [Compound 11, H-H-Aib-QGTFTSDYSKYLDE-K(Hexadecanoyl-isoGlu)-RAKDFIEWLLS-OH] (H-H[Aib]QGTFTSDYSKYLDEK([γGlu-Palmitoyl])RAKDFIEWLLS-OH)
AUC (% Ctrl) [2]: 61 % Ctrl
